# From patent US12180187B2, “1-phenyl-5-azinylpyrazolyl-3-oxyalkyl acids and their use for controlling unwanted plant growth” (BAYER AKTIENGESELLSCHAFT, priority 2019, dated 2024)
# Key:
# [1] = tested on: ECHCG; assay: Pre-emergence action against ECHCG, 1280 g/ha; type: in vivo, Echinochloa crus-galli; conditions: visual scoring after about 3 weeks vs untreated controls, 100% = plants have died, 0% = like control plants; for pest or weed control at 1280 g/ha: Echinochloa crus-galli, 504 h
# Method in brief: (§1)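 Visual percent-effect ratings (0% = like control, 100% = plants dead) were taken about 3 weeks after pre-emergence soil-surface application of WP/EC aqueous formulations with 0.5% additive, 600 L water/ha. Seeds were sown in sandy loam and grown in the greenhouse.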
# [2] = tested on: ABUTH; assay: Pre-emergence action against ABUTH, 1280 g/ha; type: in vivo, Abutilon theophrasti; conditions: scored visually after about 3 weeks vs untreated controls (100% = plants have died)
# Method in brief: as §1
# [3] = tested on: POLCO; assay: Pre-emergence action at 320 g/ha against POLCO; type: in vivo, Fallopia convolvulus (Polygonum convolvulus); conditions: visual scoring after about 3 weeks vs untreated controls; for pest or weed control at 320 g/ha: Fallopia convolvulus, 504 h
# Method in brief: (§2)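 WP/EC formulations applied pre-emergence to covering soil, water rate 600 l/ha, 0.5% additive. Greenhouse, ~3 weeks. Visual % damage vs untreated (0–100%).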
# [4] = tested on: POAAN; assay: Pre-emergence action against POAAN, 1280 g/ha; type: in vivo, Poa annua; conditions: visual scoring after about 3 weeks vs untreated controls, 100% = plants have died, 0% = like control plants; for pest or weed control at 1280 g/ha: Poa annua, 504 h
# Method in brief: as §1
# [5] = tested on: POAAN; assay: Post-emergence action against POAAN, 1.28 kg/ha; type: in vivo, Poa annua; conditions: dosage 1280 g/ha, visual rating about 3 weeks after treatment vs untreated controls; for pest or weed control at 1280 g/ha: Poa annua, 504 h
# Method in brief: (§3)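 Herbicidal action is estimated by eye after about three weeks under optimum greenhouse conditions, on a 0–100% scale against untreated plants. Compounds are applied post-emergence to one-leaf-stage weeds as aqueous WP or EC preparations containing 0.5% additive, sprayed at 600 L/ha.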
# [6] = tested on: MATIN; assay: Pre-emergence action against MATIN, 1280 g/ha; type: in vivo, Tripleurospermum inodorum (Matricaria inodora); conditions: scored visually after about 3 weeks vs untreated controls (100% = plants have died); for pest or weed control at 1280 g/ha: Tripleurospermum inodorum, 504 h
# Method in brief: as §1
# [7] = tested on: SETVI; assay: Pre-emergence action at 320 g/ha against SETVI; type: in vivo, Setaria viridis; conditions: visual scoring after about 3 weeks vs untreated controls; for pest or weed control at 320 g/ha: Setaria viridis, 504 h
# Method in brief: as §2
# [8] = tested on: STEME; assay: Pre-emergence action against STEME, 1280 g/ha; type: in vivo, Stellaria media; conditions: scored visually after about 3 weeks vs untreated controls (100% = plants have died); for pest or weed control at 1280 g/ha: Stellaria media, 504 h
# Method in brief: as §1
# [9] = tested on: ALOMY; assay: Pre-emergence action at 320 g/ha against ALOMY; type: in vivo, Alopecurus myosuroides; conditions: scored visually after about 3 weeks vs untreated controls (100% = plants have died); for pest or weed control at 320 g/ha: Alopecurus myosuroides, 504 h
# Method in brief: as §2
# [10] = tested on: AMARE; assay: Pre-emergence action against AMARE, 1280 g/ha; type: in vivo, Amaranthus retroflexus; conditions: scored visually after about 3 weeks vs untreated controls (100% = plants have died); for pest or weed control at 1280 g/ha: Amaranthus retroflexus, 504 h
# Method in brief: as §1
# [11] = tested on: SETVI; assay: Pre-emergence action against SETVI, 1280 g/ha; type: in vivo, Setaria viridis; conditions: visual scoring after about 3 weeks vs untreated controls, 100% = plants have died, 0% = like control plants; for pest or weed control at 1280 g/ha: Setaria viridis, 504 h
# Method in brief: as §1
# [12] = tested on: DIGSA; assay: Pre-emergence action at 320 g/ha against DIGSA; type: in vivo, Digitaria sanguinalis; conditions: visual scoring after about 3 weeks vs untreated controls; for pest or weed control at 320 g/ha: Digitaria sanguinalis, 504 h
# Method in brief: as §2
# [13] = tested on: AMARE; assay: Pre-emergence action at 320 g/ha against AMARE; type: in vivo, Amaranthus retroflexus; conditions: visual scoring after about 3 weeks vs untreated controls; for pest or weed control at 320 g/ha: Amaranthus retroflexus, 504 h
# Method in brief: as §2
# [14] = tested on: STEME; assay: Post-emergence action against STEME, 1.28 kg/ha; type: in vivo, Stellaria media; conditions: dosage 1280 g/ha, visual rating about 3 weeks after treatment vs untreated controls (100% = plants died)
# Method in brief: as §3
# [15] = tested on: ABUTH; assay: Post-emergence action against ABUTH, 1.28 kg/ha; type: in vivo, Abutilon theophrasti; conditions: dosage 1280 g/ha, visual rating about 3 weeks after treatment vs untreated controls (100% = plants died)
# Method in brief: as §3
SMILES,pest or weed control at 1280 g/ha [1] [%],Pre-emergence action against ABUTH [2] [%],pest or weed control at 320 g/ha [3] [%],pest or weed control at 1280 g/ha [4] [%],pest or weed control at 1280 g/ha [5] [%],pest or weed control at 1280 g/ha [6] [%],pest or weed control at 320 g/ha [7] [%],Post-emergence action against STEME [14] [%],Pre-emergence action against ECHCG [1] [%],Pre-emergence action against POLCO in % [3] [%],Pre-emergence action against POAAN [4] [%],Post-emergence action against POAAN [5] [%],Pre-emergence action against MATIN [6] [%],Pre-emergence action against SETVI in % [7] [%],Pre-emergence action against STEME [8] [%],Pre-emergence action at 320 g/ha against ALOMY in % [9] [%],Pre-emergence action against AMARE [10] [%],Pre-emergence action against SETVI [11] [%],Pre-emergence action against DIGSA in % [12] [%],Pre-emergence action against AMARE in % [13] [%],also measured
"O=C(O)COc1nn(-c2ccccc2F)c(-c2cncnc2)c1Br [VI-007, {[4-Bromo-1-(2-fluorophenyl)-5-(pyrimidin-5-yl)-1H-pyrazol-3-yl]oxy}acetic Acid]",100,90,100,100,100,100,100,100,,,,,,,,,,,,,pest or weed control at 1280 g/ha [8]: 100%; pest or weed control at 320 g/ha [9]: 80%; pest or weed control at 1280 g/ha [10]: 100%; pest or weed control at 1280 g/ha [11]: 100%; pest or weed control at 320 g/ha [12]: 100%; pest or weed control at 320 g/ha [13]: 100%
"COC(=O)[C@@H](C)Oc1nn(-c2ccccc2F)c(-c2cncnc2)c1Br [VI-011, Methyl (2R)-2-{[4-bromo-1-(2-fluorophenyl)-5-(pyrimidin-5-yl)-1H-pyrazol-3-yl]oxy}propanoate]",100,90,80,100,100,90,100,100,,,,,,,,,,,,,pest or weed control at 1280 g/ha [8]: 100%; pest or weed control at 320 g/ha [9]: 100%; pest or weed control at 1280 g/ha [10]: 100%; pest or weed control at 1280 g/ha [11]: 100%; pest or weed control at 320 g/ha [12]: 100%; pest or weed control at 320 g/ha [13]: 100%
C[C@@H](Oc1nn(-c2ccccc2F)c(-c2cncnc2)c1Br)C(=O)O [VI-012],,90,,,,,,90,90,80,100,100,90,100,100,90,100,100,100,100,
CCOC(=O)C(C)Oc1nn(-c2ccccc2F)c(-c2ccc(F)nc2)c1Br (stereo not shown) [VII-019],,90,,,,,,100,100,100,100,100,90,100,100,100,100,100,100,100,
CCOC(=O)C(C)Oc1nn(-c2ccccc2F)c(-c2ccc(F)nc2)c1I (stereo not shown) [VII-057],,90,,,,,,,100,90,100,100,100,90,100,100,100,100,100,100,
O=C(COc1nn(-c2ccccc2F)c(-c2ccc(F)nc2)c1Br)OCC1OCCO1 [VII-103],,90,,,,,,,100,100,100,100,100,100,100,100,100,100,100,100,
CCOC(=O)COc1nn(-c2ccccc2F)c(-c2ccc(F)nc2)c1C [VII-117],,90,,,,,,,100,100,100,100,100,100,90,100,100,100,100,100,
"CCOC(=O)COc1nn(-c2ccccc2F)c(-c2ccnc(F)c2)c1Br [VIII-003, Ethyl {[4-bromo-1-(2-fluorophenyl)-5-(2-fluoropyridin-4-yl)-1H-pyrazol-3-yl]oxy}acetate]",100,,100,100,100,100,100,100,,,,,,,,,,,,,Post-emergence action against ABUTH [15]: 90%; pest or weed control at 1280 g/ha [8]: 100%; pest or weed control at 320 g/ha [9]: 100%; pest or weed control at 1280 g/ha [10]: 100%; pest or weed control at 1280 g/ha [11]: 100%; pest or weed control at 320 g/ha [12]: 100%; pest or weed control at 320 g/ha [13]: 90%
